Usually GI50 stands for the concentration giving 50% growth inhibition. Low values mean greater sensitivity of the cells, high ones lower sensitivity of the cells. A word on the inhibition: it is the share of the control response that was lost under treatment. For orientation: melting point means the temperature, or range, at which the solid turns liquid.

For series [1], the system named is NCI-H460. Nature of the series: Anti-cancer screen (MTT), NCI-H460. Type of series: cell-based. To be noted: Homo sapiens, NCI-H460; 48 hours, MTT. How it is done: (§1) Experimental drugs are screened for anti-cancer activity in three cell lines for their GI50, TGI and LC50 values (using five concentrations for each compound). The cell lines are maintained in DMEM containing 10% fetal bovine serum. 96 well microtiter plates are inoculated with cells in 100 μL for 24 h at 37° C., 5% CO2, 95% air and 100% relative humidity. 5000 HCT116 cells/well, 5000 NCIH460 cells/well, 10000 U251 cells/well and 5000 MDAMB231 cells/well are plated. A separate plate with these cell lines is also inoculated to determine cell viability before the addition of the compounds (T0).
Following 24 hours incubation, experimental drugs are added to the 96 well plates. […] Compounds are dissolved in dimethylsulfoxide (DMSO) to make 20 mM stock solutions on the day of drug addition and frozen at −20° C. […] Standard drugs whose anti-cancer activity has been well documented and which are regularly used are doxorubicin and SAHA.
(§2) Cells are incubated with compounds for 48 hours followed by the addition of 10 μL 3-(4,5-Dimethyl-2-thiazolyl)-2,5-diphenyl-2H-tetrazolium (MTT) solution per well and a subsequent incubation at 37° C., 5% CO2, 95% air and 100% relative humidity, protected from light. After 4 hours, well contents are aspirated carefully followed by addition of 150 μL DMSO per well. Plates are agitated to ensure solution of the formazan crystals in dimethylsulphoxide and absorbance read at 570 nm.
(§3) Percent growth is calculated for each compound's concentration relative to the control and zero measurement wells (To; viability right before compound addition). If a test well's O.D. value is greater than the To measurement for that cell line % Growth=(test−zero)/(control−zero)×100
(§4) If a test well's O.D. value is lower than the T0 measurement for that cell line, […]

In series [2] the test system is U251. Nature of the series: Anti-cancer screen (MTT), U251. Particulars: Homo sapiens, U-251, 48 hours. The series is classed as cell-based. The method, then:
as §1
(§5) Following 24 hours incubation, experimental drugs are added to the 96 well plates. Each plate contains one of the above cell lines and the following in triplicate: five different concentrations (0.01, 0.1, 1, 10 and 100 μM) of four different compounds, appropriate dilutions of a cytotoxic standard and control (untreated) wells. Compounds are dissolved in dimethylsulfoxide (DMSO) to make 20 mM stock solutions on the day of drug addition and frozen at −20° C. Serial dilutions of these 20 mM stock solutions are made in complete growth medium such that 100 μL of these drug solutions in medium, of final concentrations equaling 0.01, 0.1, 1, 10 and 100 μM can be added to the cells in triplicate. Standard drugs whose anti-cancer activity has been well documented and which are regularly used are doxorubicin and SAHA.
as §2, §3, §4

In series [3] the test system is HCT116. Nature of the series: Anti-cancer screen (MTT), HCT116. Particulars: Homo sapiens, HCT-116, 48 hours. Type of series: cell-based. The method, then:
as §1, §5, §2, §3, §4

The test system of series [4] is IL-6. Nature of the series: In vitro measurement of IL-6 in human PBMC. The series is classed as cell-based. To be noted: LPS; for inhibition at 10 µM: Conc. 10 μM. The method, then:
(§6) In vitro Measurement of Interleukin-6 (IL-6) & Interleukin-1β (IL1β)
(§7) This assay determines the effect of test compounds on the production of IL-6 and IL1β in human PBMC (Physiol. Res. 52: 593-598, 2003). Compounds were tested for their ability to inhibit the activity of IL-6 and IL1β in human PBMC. PBMC were isolated from blood using BD Vacutainer CPT™ Cell preparation tube (BD Bio Science) and suspended in RPMI medium. The test compounds were preincubated with PBMC (0.5 million/incubation well) for 15 minutes at 37° C. and then stimulated with Lipopolysaccharide (Escherichia coli: B4; 1 μg/ml) for 18 hours at 37° C. in 5% CO2. The levels of IL-6 and IL1β in cell culture medium were estimated using enzyme linked Immunosorbent assay performed in a 96 well format as per the procedure of the manufacturer (R&D Systems, Inc. 614 McKinley Place Nebr., Minneapolis, Minn. 55413, USA).

For series [5], the system named is IL-1β. Description: In vitro measurement of IL-1β in human PBMC. Type of series: cell-based. Particulars: LPS. The method, then:
as §6, §7

In series [6] the test system is TNF-α. Nature of the series: In vitro measurement of TNF-α in human PBMC. Particulars: LPS. Type of series: cell-based. The method, then: In Vitro Measurement of Tumor Necrosis Factor Alpha (TNF-α)
This assay determines the effect of test compounds on the production of TNF-α in human Peripheral Blood Mononuclear Cells (PBMC). Compounds were tested for their ability to inhibit the activity of TNF-α in human PBMC. PBMC were isolated from blood (from healthy volunteers) using BD Vacutainer CPT™ (Cell preparation tube, BD Bio Science) and suspended in RPMI medium (Physiol. Res. 52; 593-598, 2003). The test compounds were pre-incubated with PBMC (0.5 million/incubation well) for 15 minutes at 37° C. and then stimulated with Lipopolysaccharide (Escherichia coli: B4; 1 μg/ml) for 18 hours at 37° C. in 5% CO2. The levels of TNF-α in the cell culture medium were estimated using enzyme linked Immunosorbent assay performed in a 96 well format as per the procedure of the manufacturer (R&D Systems, Inc. 614 McKinley Place Nebr., Minneapolis, Minn. 55413, USA).

As for `CNc1nc(-c2ccc(SC)cc2)nc(SC)c1C(=O)Nc1ccc(C)cc1C` [Example 39, N-(2,4-Dimethylphenyl)-4-(methylamino)-6-(methylthio)-2-[4-(methylthio)phenyl]pyrimidine-5-carboxamide], the concentration for 50% growth inhibition (GI50) in series [1] is 2 µM; in series [2] it was 0.09 µM.

On to `CSc1ccc(-c2nc(NN)c(C(=O)Nc3ccc(C)c(C)c3)c(SC)n2)cc1` [Example 48, N-(3,4-Dimethylphenyl)-4-hydrazino-6-(methylthio)-2-[4-(methylthio)phenyl]pyrimidine-5-carboxamide], for which the GI50 in series [1] amounted to 5 µM; in series [3] it was 2.5 µM; in series [2], 3 µM.

On to `CNc1nc(-c2ccncc2)nc(SC)c1C(=O)Nc1ccc(C)cc1` [Example 24, 4-(Methylamino)-N-(4-methylphenyl)-6-(methylthio)-2-pyridin-4-ylpyrimidine-5-carboxamide], for which the values for the GI50 in series [1] and in series [3] were 4 µM and 9.9 µM, respectively.

Turning to `CNc1nc(-c2ccc(SC)cc2)nc(SC)c1C(=O)Nc1ccc(OC)cc1` [Example 20, 4-(Methylamino)-N-(4-methoxyphenyl)-6-(methylthio)-2-[4-(methylthio)phenyl]pyrimidine-5-carboxamide], the GI50 in series [1] turned out to be 3.2 µM.

Take `CCOc1ccc(NC(=O)c2c(NC)nc(-c3ccc(SC)cc3)nc2SC)cc1` [Example 40, N-(4-Ethoxyphenyl)-4-(methylamino)-6-(methylthio)-2-[4-(methylthio)phenyl]pyrimidine-5-carboxamide]: the inhibition at 10 µM in series [4] worked out at 61.5%. Moreover, the “IL-1β Inhibition (%)” value in series [5] (Conc. 10 μM) is “Not active”. The concentration for 50% growth inhibition (GI50) in series [1] came to 0.5 µM; in series [3], 2 µM; in series [2] it was 0.1 µM.

On to `CCc1ccc(NC(=O)c2c(NC)nc(-c3ccncc3)nc2SC)cc1` [Example 21, N-(4-Ethylphenyl)-4-(methylamino)-6-(methylthio)-2-pyridin-4-ylpyrimidine-5-carboxamide], for which the concentration for 50% growth inhibition (GI50) in series [1] turned out to be 0.4 µM; in series [3], 9.5 µM.

For `CNc1nc(-c2cccnc2)nc(NC)c1C(=O)Nc1ccc(C)c(C)c1` [Example 7, N-(3,4-Dimethylphenyl)-4,6-bis(methylamino)-2-pyridin-3-ylpyrimidine-5-carboxamide], the melting point was in the range of 285 to 286 °C. Testing at 0.1 µM in series [6] gave an inhibition of 30.4%. This compound came in with an inhibition at 10 µM in series [4] of 53.8%. In addition, the “IL-1β Inhibition (%)” value in series [5] (Conc. 10 μM) is reported as “Not active”.

Regarding `CCc1ccc(NC(=O)c2c(NC)nc(-c3ccc(S(N)(=O)=O)cc3)nc2NC)cc1` [Example 16, 2-[4-(Aminosulfonyl)phenyl]-4,6-bis(methylamino)-N-(4-ethylphenyl)pyrimidine-5-carboxamide], the inhibition at 10 µM in series [6] (at 10 μM) was found to be 53.1%.

`CCCCc1ccc(NC(=O)c2c(NC)nc(-c3ccc(SC)cc3)nc2SC)cc1` [Example 36] displayed an inhibition at 0.1 µM in series [4] (Conc. 0.1 μM) of 26.6%. Also, in series [5] (Conc. 0.1 μM), the “IL-1β Inhibition (%)” value is given as “Not active”. Further, the 50% growth inhibitory concentration (GI50) came to 3 µM in series [1] and 1.8 µM in series [2].

For `CNc1nc(-c2ccncc2)nc(SC)c1C(=O)Nc1ccc(C(C)C)cc1` [Example 34, N-(4-Isoproylphenyl)-4-(methylamino)-6-(methylthio)-2-pyridin-4-ylpyrimidine-5-carboxamide], the GI50 in series [1] was 0.9 µM; in series [3], 9 µM.

Regarding `CNc1nc(-c2cccnc2)nc(SC)c1C(=O)Nc1ccc(OC)cc1.O=P(O)(O)O` [Example 59, N-(4-Methoxyphenyl)-4-(methylamino)-6-(methylthio)-2-pyridin-3-ylpyrimidine-5-carboxamide orthophosphoric acid salt], the melting point lay within 222 to 225 °C.

Regarding `CNc1nc(-c2ccncc2)nc(SC)c1C(=O)Nc1ccc(F)cc1` [Example 18, N-(4-Fluorophenyl)-4-(methylamino)-6-(methylthio)-2-pyridin-4-ylpyrimidine-5-carboxamide], the concentration for 50% growth inhibition (GI50) in series [1] was 2 µM; in series [3], 1.2 µM.

In turn, `CCc1ccc(NC(=O)c2c(NC)nc(-c3ccc(S(N)(=O)=O)cc3)nc2SC)cc1` [Example 17, 2-[4-(Aminosulfonyl)phenyl]-N-(4-ethylphenyl)-4-(methylamino)-6-(methylthio)pyrimidine-5-carboxamide] yielded an inhibition at 0.1 µM in series [6] of 30.1%.

In turn, `CSc1ccc(-c2nc(O)c(C(=O)Nc3ccc(C)cc3)c(SC)n2)cc1` [Example 1, 4-Hydroxy-N-(4-methylphenyl)-6-(methylthio)-2-[4-(methylthio)phenyl]pyrimidine-5-carboxamide] had a melting point of 302 to 305 °C.

For `CSc1ccc(-c2nc(NCCO)c(C(=O)Nc3ccc(C)c(C)c3)c(SC)n2)cc1` [Example 32, N-(3,4-Dimethylphenyl)-4-[(2-hydroxyethyl)amino]-6-(methylthio)-2-[4-(methylthio)phenyl]pyrimidine-5-carboxamide], the GI50 stood at 4 µM in series [3] and 3 µM in series [2].

As for `CSc1nc(-c2ccncc2)nc(NCCO)c1C(=O)Nc1ccc(Br)cc1` [Example 46, N-(4-Bromophenyl)-4-[(2-hydroxyethyl)amino]-6-(methylthio)-2-pyridin-4-ylpyrimidine-5-carboxamide], the GI50 in series [1] and in series [2] was 0.2 µM throughout.

In the case of `CNc1nc(-c2ccc(N(C)C)cc2)nc(SC)c1C(=O)Nc1ccc(OC)cc1` [Example 57, 2-[4-(Dimethylamino)phenyl]-4-(methylamino)-N-(4-methoxyphenyl)-6-(methylthio)pyrimidine-5-carboxamide], the results for the GI50 in series [1] and in series [2] were 7 µM and 4 µM, respectively.

Take `CNc1nc(-c2ccc(F)cc2)nc(SC)c1C(=O)Nc1ccc(SC)cc1` [Example 45, 2-(4-Fluorophenyl)-4-(methylamino)-6-(methylthio)-N-[4-(methylthio)phenyl]pyrimidine-5-carboxamide]: the concentration for 50% growth inhibition (GI50) in series [1] turned out to be 0.4 µM; in series [2] it was 0.7 µM.

In series [4], `CSc1ccc(-c2nc(SC)c(C(=O)Nc3ccc(C)c(C)c3)c(N3CCNCC3)n2)cc1` [Example 42, N-(3,4-Dimethylphenyl)-6-(methylthio)-2-[4-(methylthio)phenyl]-4-piperazin-1-ylpyrimidine-5-carboxamide] gave an inhibition at 10 µM of 92.2%. Besides, the “IL-1β Inhibition (%)” value in series [5] (Conc. 10 μM) is recorded as “Not active”. Further, the GI50 in series [1] was determined as 3 µM; in series [3], 4 µM; in series [2] it was 5 µM.

With `CSc1ccc(-c2nc(O)c(C(=O)Nc3ccc(C)c(C)c3)c(SC)n2)cc1` [Example 2, 4-Hydroxy-N-(3,4-dimethylphenyl)-6-(methylthio)-2-[4-(methylthio)phenyl]pyrimidine-5-carboxamide], the melting point was in the range of 303 to 305 °C.

As to `CSc1nc(-c2ccncc2)nc(NCCO)c1C(=O)Nc1ccc(Cl)cc1` [Example 47, N-(4-Chlorophenyl)-4-[(2-hydroxyethyl)amino]-6-(methylthio)-2-pyridin-4-ylpyrimidine-5-carboxamide], the 50% growth inhibitory concentration (GI50) in series [1] amounted to 0.1 µM; in series [2], 0.3 µM.
